From ChEMBL document CHEMBL4828719, “H2dpa derivatives containing pentadentate ligands: An acyclic adjuvant potentiates meropenem activity in vitro and in vivo against metallo-β-lactamase-producing Enterobacterales” (Eur J Med Chem, 2021)

Test system: Klebsiella pneumoniae
Experiment: Antibiotic adjuvant activity against meropenem-treated NDM-producing carbapenem resistant Klebsiella pneumoniae infected in BALB/c mouse sepsis model assessed as survival rate at 10 mg/kg, ip in the presence of meropenem measured after 7 days
Assay type: functional
Settings: 168 h, time 7 day

C[C@H](C(=O)O)N(Cc1cccc(C(=O)O)n1)Cc1cccc(C(=O)O)n1
survival at 10 mg/kg: 100%
